Experimental data as given in patent publication US20240082331A1, “ANTI-OBESITY COMPOSITION CONTAINING, AS ACTIVE INGREDIENT, MORINGA OLEIFERA FERMENTATION PRODUCT PREPARED USING NOVEL MONASCUS PURPUREUS SL1” (MBIOMETHERAPEUTICS CO., LTD., priority 2021, published 2024).

System: 3T3-L1 preadipocytes
Experiment: Inhibition of adipocyte differentiation (AdipoRed assay)
Assay type: cell-based, mice
Conditions: FIG. 3
Protocol: Preadipocytes (3T3-L1) from mice were purchased from ATCC (American Type Culture Collection). DMEM culture medium, Trypsin/EDTA, FBS (fetal bovine serum), and BCS (Bovine calf serum) were purchased from Gibco (Invitrogen corporation). AdipoRed assay reagent for measurement was purchased from Cambrex. Specifically, 3T3-L1 preadipocytes were cultured in DMEM medium containing 10% BCS and antibiotics, and maintained in a CO 2 incubator with 5% carbon dioxide supply. The cells were seeded at a concentration of 1×10^6 cells in a 96-well plate and cultured until they reached 100% confluency. To measure adipocyte differentiation, the cells were treated with MD medium (0.5 mM 3-isobutyl-1-methylxanthine and 1 μM dexamethasone). After 2 days, the medium was replaced with DMEM medium containing 10% FBS, and further cultured for 6 days. Moringa powder and fermented Moringa extract were treated at various concentrations. […] After 10 minutes, fluorescence intensity was measured using a fluorescence intensity reader. Subsequently, the inhibitory effect on adipocyte differentiation in the six compounds isolated in Example 2 was measured. […]

`CC(=O)OC[C@H]1O[C@@H](Oc2c(-c3ccc(O)cc3)oc3cc(O)cc(O)c3c2=O)[C@H](O)[C@@H](O)[C@@H]1O` [MOFE-16-5, 6″-O-acetyl astragalin] was tested, and the “adipocyte differentiation inhibition activity of isolated compounds” value was “excellent adipocyte differentiation inhibition activity”.
